From US20100190237A1, “COMPOSITIONS AND METHODS FOR STORAGE OF BACTERIAL SUSPENSIONS” (priority 2007, published 2010)

Tests used:
[1] = test system: luminescent bacteria (e.g. Photobacterium leiognathi, Vibrio fischeri, Vibrio harveyi); assay: titration of medium components: luminescence during long term storage at refrigeration temperatures; format: cell-based; conditions: for range I: concentrations that provided a marked improvement over negative control / range II: concentrations that produced no negative effect relative to negative control: based on results of examples 2 through 9; for concentration that slowed the reduction in luminescence better than other tested concentrations: storage at -2 to +4° C. over several weeks, other components constant as in Table 1, pH 7.2; for effect of antibiotic on luminescence during long term storage: antibiotic at 15 mg/L in storage solution
Procedure: In order to identify storage conditions suitable for a long term medium for a suspension of luminescent bacteria (e.g. Photobacterium leiognathi, Vibrio fischeri, Vibrio harveyi) different concentrations of monovalent salts, sugars, sources of divalent cations, protein mixtures, albumins and alcohols were tested.
Each of the medium components (including pH) was tested separately while all other components were kept at a constant concentration as indicated in Table 1. For titration of other components pH was held constant at 7.2. The effect on bacterial luminescence of each component at each tested concentration (or pH value) was determined over a period of several weeks.
In order to perform the titration of the medium components, a bacterial culture was spread on LA plates at about 300 colonies per plate after over night growth. Colonies were collected from plates with ASW and centrifuged (10000 g, 10 minutes, 4° C.). Harvested bacteria were resuspended in the different solutions to form experimental bacterial suspensions.
Experimental bacterial suspensions were stored at −2° C.-+4° C. Each week an aliquot of each experimental bacterial suspension was drawn and diluted in artificial seawater (ASW: 0.5M NaCl, 50 mM MgSO47H2O, 10 mM CaCl22H2O, 10 mM KCl)) supplemented with 50 ppm yeast extract/glucose and incubated at 26° C.-28° C. Light level was recorded after 30 minutes.

P. leiognathi = assay: ToxScreen-II toxicity assay (bacterial luminescence) with stored bacterial suspension; format: cell-based; conditions: light level after 30 minutes at 27° C.
Procedure: In order to determine how long a bacterial suspension stored in a solution according to an exemplary embodiment of the invention could be useful in a toxicity assay, a toxicity assay (ToxScreen-II, CheckLight Ltd, Qiryat Tivon, Israel) was conducted repeatedly over time.
In the assay, 0.01 mL aliquots were drawn from the bacterial suspension (P. leiognathi) in the medium at 4 time points during 30 days and incubated with chemical toxicants in assay buffer diluted in mineral water. Light level was determined after 30 minutes at 27° C.

[2] = test system: E. coli harboring the luminescence system of V. fischeri; conditions: titration as in Example 6; data not shown
Procedure: In order to determine the effect of monovalent salts on luminescence during long term storage at refrigeration temperatures, NaCl was added to medium at concentrations of 0.1, 0.5, 2.0, 3.0 and 4.5%. […] Assay of the effect of NaCl was as described in Example 1.

| Compound | range I: concentrations that provided a marked improvement over negative control [1] | range II: concentrations that produced no negative effect relative to negative control [1] | Sensitivity of P. leiognathi to various toxicants (P. leiognathi; Day 1 of storage) [mg/L] | Sensitivity of P. leiognathi to various toxicants (P. leiognathi; Day 7 of storage) [mg/L] | Sensitivity of P. leiognathi to various toxicants (P. leiognathi; Day 18 of storage) [mg/L] | Sensitivity of P. leiognathi to various toxicants (P. leiognathi; Day 30 of storage) [mg/L] | other results |
| --- | --- | --- | --- | --- | --- | --- | --- |
| [Cl-].[Cl-].[Mg+2] [magnesium, MgCl2] | 1.0 to 200 mM | 0.0 to 300 mM | – | – | – | – | concentration that slowed the reduction in luminescence better than other tested concentrations [1]: 200 mM |
| [Cl][Pb][Cl] [PbCl2] | – | – | 2 | 2.5 | 3 | 2.5 | – |
| O[C@H]1[C@H](O)[C@@H](O)[C@H](O)[C@@H](O)[C@H]1O [inositol] | 5.0-7.0% | 0.5-7.0% | – | – | – | – | concentration that slowed the reduction in luminescence better than other tested concentrations [1]: 5% |
| [Cl-].[Na+] [NaCl] | 2.0-3.0% | 1.0-3.0% | – | – | – | – | salt concentration determined to be useful (preserving luminescence) [2]: 0.8-0.85% |
| CC1(C)S[C@@H]2[C@H](NC(=O)[C@H](N)c3ccccc3)C(=O)N2[C@H]1C(=O)O [ampicillin] | – | – | – | – | – | – | effect of antibiotic on luminescence during long term storage [1]: slowed the reduction in luminescence better than other tested antibiotics |
| [K+].[K+].[O]=[Cr](=[O])([O-])[O][Cr](=[O])(=[O])[O-] [K2Cr2O7] | – | – | 0.5 | 0.7 | 0.5 | 0.6 | – |
| Clc1ccc(C(c2ccc(Cl)cc2)C(Cl)(Cl)Cl)cc1 [DDT] | – | – | 0.007 | 0.006 | 0.004 | 0.006 | – |
| O=C(N[C@H](CO)[C@H](O)c1ccc([N+](=O)[O-])cc1)C(Cl)Cl [chloramphenicol] | – | – | – | – | – | – | effect of antibiotic on luminescence during long term storage [1]: slowed the reduction in luminescence better than other tested antibiotics |
| Bovine serum albumin [BSA] | – | 0.02-1.0% | – | – | – | – | – |
| CCO [ethanol] | 1.0-3.5% | 0.1-3.5% | – | – | – | – | concentration that slowed the reduction in luminescence better than other tested concentrations [1]: ≥ 1.5% |
| [Cl][Cd][Cl] [CdCl2] | – | – | 0.2 | 0.25 | 0.3 | 0.4 | – |
